From PubChem BioAssay (NCI)
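The compound was tested at five concentrations on cells cultured in 96-well plates, with a 48-hour exposure period. The concentration for full growth arrest is given as TGI.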

Legend:
Assay in all cases: inhibition of tumour cell growth, NCI panel, 48 h
[1] = test system: PC-3 prostate
[2] = test system: MDA-N
[3] = test system: HOP-92 NSCLC
[4] = test system: MDA-MB-435
[5] = test system: T-47D breast
[6] = test system: SK-OV-3 ovarian
[7] = test system: SF-539 CNS
[8] = test system: OVCAR-5 ovarian
[9] = test system: MDA-MB-231 breast
[10] = test system: SF-295 CNS
[11] = test system: SK-MEL-28 melanoma
[12] = test system: SR leukemia
[13] = test system: A498 renal
[14] = test system: COLO 205 colon
[15] = test system: NCI-H23 lung
[16] = test system: CCRF-CEM leukemia
[17] = test system: U251 CNS
[18] = test system: BT-549 breast
[19] = test system: TK-10 renal
[20] = test system: DU-145 prostate
[21] = test system: MOLT-4 leukemia
[22] = test system: HCC-2998 colon
[23] = test system: EKVX NSCLC
[24] = test system: LOX IMVI melanoma
[25] = test system: NCI/ADR-RES ovarian
[26] = test system: OVCAR-8 ovarian
[27] = test system: CAKI-1 renal
[28] = test system: HT29 colon
[29] = test system: SW-620 colon
[30] = test system: OVCAR-3 ovarian
[31] = test system: KM12 colon
[32] = test system: MALME-3M melanoma
[33] = test system: 786-0 renal
[34] = test system: HOP-62 NSCLC
[35] = test system: HS 578T breast
[36] = test system: SNB-75 CNS
[37] = test system: NCI-H226 lung
[38] = test system: HL-60(TB) leukemia
[39] = test system: K-562 leukemia
[40] = test system: UACC-257 melanoma
[41] = test system: RXF 393 renal
[42] = test system: MCF7 breast
[43] = test system: SN12C renal
[44] = test system: HCT-116 colon
[45] = test system: SNB-19 CNS
[46] = test system: A549 NSCLC
[47] = test system: NCI-H522 lung
[48] = test system: UACC-62 melanoma
[49] = test system: M14 melanoma
[50] = test system: ACHN renal
[51] = test system: SK-MEL-2 melanoma
[52] = test system: SF-268 CNS
[53] = test system: UO-31 renal
[54] = test system: SK-MEL-5 melanoma
[55] = test system: IGROV1 ovarian
[56] = test system: HCT-15 colon
[57] = test system: RPMI-8226 leukemia
[58] = test system: NCI-H460 lung
[59] = test system: OVCAR-4 ovarian

Measured: TGI

CC1CN=C(Nc2ccccc2)S1 (stereo unspecified)
not listed: [59]
> 100 µM: all other assays above

Nc1nc2c(c(=O)[nH]1)C(c1ccccc1)CC(=O)N2 (stereo unspecified)
not listed: [3] | [16] | [27] | [38] | [41] | [47]
> 100 µM: all other assays above
